Experimental findings from patent publication US11566028B2, “Bicyclic heterocycles as FGFR inhibitors” (Incyte Corporation, priority 2019, dated 2023) are described below.

Like-named read-outs stand apart in the source and are kept apart here.

In general, IC50 refers to the midpoint of a concentration-inhibition curve. Low values mean greater potency in that assay, high ones weaker potency in that assay.

What all share (assay type): biochemical
One experiment addresses FGFR2 (Homo sapiens (Human), UniProt P21802). The experiment in a line: FGFR Enzymatic Assay (FRET peptide phosphorylation), FGFR2.
In experiment [1] the target is wild-type un-phosphorylated FGFR3 protein (Homo sapiens (Human), UniProt P22607). The experiment in a line: FGFR Enzymatic Assay (FRET peptide phosphorylation), FGFR3. Particulars: pre-incubated for 4 hours.
For another experiment, the target named is FGFR1 (Homo sapiens (Human), UniProt P11362). The experiment in a line: FGFR Enzymatic Assay (FRET peptide phosphorylation), FGFR1. Particulars: pre-incubated for 4 hours.
Chain of FGFR1 (P11362 22-822): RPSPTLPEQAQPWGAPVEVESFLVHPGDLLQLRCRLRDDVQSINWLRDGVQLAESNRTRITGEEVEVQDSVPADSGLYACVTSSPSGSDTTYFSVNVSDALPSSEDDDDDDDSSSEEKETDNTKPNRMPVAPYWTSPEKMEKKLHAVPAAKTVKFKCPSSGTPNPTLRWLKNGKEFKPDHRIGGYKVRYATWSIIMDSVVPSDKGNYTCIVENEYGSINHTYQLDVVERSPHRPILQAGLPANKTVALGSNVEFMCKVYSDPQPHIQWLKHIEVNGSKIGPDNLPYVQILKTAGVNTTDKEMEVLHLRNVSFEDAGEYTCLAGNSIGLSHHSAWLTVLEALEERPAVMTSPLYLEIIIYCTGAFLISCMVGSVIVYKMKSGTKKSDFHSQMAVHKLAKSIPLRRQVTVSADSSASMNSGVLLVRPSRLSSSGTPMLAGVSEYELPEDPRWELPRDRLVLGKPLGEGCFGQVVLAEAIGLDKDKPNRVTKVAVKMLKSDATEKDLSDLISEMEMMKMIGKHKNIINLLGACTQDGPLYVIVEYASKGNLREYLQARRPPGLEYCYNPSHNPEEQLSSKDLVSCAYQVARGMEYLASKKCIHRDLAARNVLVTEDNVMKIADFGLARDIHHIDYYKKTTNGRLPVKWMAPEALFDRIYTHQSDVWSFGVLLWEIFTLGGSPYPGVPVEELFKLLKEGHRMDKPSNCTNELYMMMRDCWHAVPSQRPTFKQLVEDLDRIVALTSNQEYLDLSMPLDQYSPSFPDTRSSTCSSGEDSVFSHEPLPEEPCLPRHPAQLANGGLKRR

Chain of wild-type un-phosphorylated FGFR3 protein (P22607 23-806): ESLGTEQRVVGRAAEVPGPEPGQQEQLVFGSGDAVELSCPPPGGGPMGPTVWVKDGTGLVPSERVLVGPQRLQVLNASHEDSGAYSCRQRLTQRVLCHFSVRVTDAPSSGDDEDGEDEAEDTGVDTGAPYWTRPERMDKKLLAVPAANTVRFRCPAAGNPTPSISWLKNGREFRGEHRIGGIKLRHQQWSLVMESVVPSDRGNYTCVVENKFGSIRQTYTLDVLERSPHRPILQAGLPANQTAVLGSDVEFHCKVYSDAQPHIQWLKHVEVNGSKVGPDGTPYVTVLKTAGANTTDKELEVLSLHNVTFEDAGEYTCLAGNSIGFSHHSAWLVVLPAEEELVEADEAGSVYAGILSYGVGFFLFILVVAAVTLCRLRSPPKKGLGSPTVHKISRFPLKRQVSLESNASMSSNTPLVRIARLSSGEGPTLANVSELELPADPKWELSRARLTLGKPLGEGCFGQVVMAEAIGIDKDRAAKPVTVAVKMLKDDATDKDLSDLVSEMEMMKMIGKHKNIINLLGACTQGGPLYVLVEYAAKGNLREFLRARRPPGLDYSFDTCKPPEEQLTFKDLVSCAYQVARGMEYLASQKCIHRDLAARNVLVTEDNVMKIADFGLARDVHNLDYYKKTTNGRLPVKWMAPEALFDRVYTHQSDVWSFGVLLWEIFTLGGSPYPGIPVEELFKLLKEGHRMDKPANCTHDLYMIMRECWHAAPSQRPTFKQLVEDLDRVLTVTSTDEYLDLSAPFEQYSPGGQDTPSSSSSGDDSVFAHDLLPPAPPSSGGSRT
Chain of FGFR2 (P21802 22-821): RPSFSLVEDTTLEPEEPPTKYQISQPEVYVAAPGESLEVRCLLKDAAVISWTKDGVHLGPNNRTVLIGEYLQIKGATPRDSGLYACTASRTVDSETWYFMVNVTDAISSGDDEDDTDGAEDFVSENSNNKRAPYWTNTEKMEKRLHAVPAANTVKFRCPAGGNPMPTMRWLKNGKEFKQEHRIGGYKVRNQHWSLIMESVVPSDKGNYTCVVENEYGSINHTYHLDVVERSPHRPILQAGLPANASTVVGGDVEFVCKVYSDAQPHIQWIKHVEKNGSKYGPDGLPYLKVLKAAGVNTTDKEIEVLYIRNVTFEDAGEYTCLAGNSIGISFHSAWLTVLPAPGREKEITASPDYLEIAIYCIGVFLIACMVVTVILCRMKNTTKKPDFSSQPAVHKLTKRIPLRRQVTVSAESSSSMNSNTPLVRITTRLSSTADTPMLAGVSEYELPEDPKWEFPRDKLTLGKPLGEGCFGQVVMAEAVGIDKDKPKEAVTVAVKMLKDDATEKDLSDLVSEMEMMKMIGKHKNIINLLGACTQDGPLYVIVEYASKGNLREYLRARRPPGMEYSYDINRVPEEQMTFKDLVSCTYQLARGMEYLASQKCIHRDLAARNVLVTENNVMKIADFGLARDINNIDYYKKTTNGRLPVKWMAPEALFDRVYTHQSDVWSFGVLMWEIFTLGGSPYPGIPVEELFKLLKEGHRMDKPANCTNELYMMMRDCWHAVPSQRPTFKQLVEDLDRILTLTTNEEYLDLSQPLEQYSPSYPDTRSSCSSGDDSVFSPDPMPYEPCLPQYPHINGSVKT

With `CNC(=O)c1cc(C#N)cc(-c2cnn3cc(-c4cnn(C)c4)c(O[C@H]4CCOC4)nc23)c1` [Example 6, (S)-3-Cyano-N-methyl-5-(6-(1-methyl-1H-pyrazol-4-yl)-5-((tetrahydrofuran-3-yl)oxy)pyrazolo[1,5-a]pyrimidin-3-yl)benzamide], the IC50 against FGFR2 (pre-incubated for 4 hours) was less than 10 nM; in experiment [1], less than 10 nM; at FGFR1, 10 to 30 nM.

`CNC(=O)c1cc(C#N)cc(-c2cnn3cc(-c4cnn(C)c4)c(N[C@H]4CCOC4)nc23)c1` [Example 8, (S)-3-Cyano-N-methyl-5-(6-(1-methyl-1H-pyrazol-4-yl)-5-((tetrahydrofuran-3-yl)amino)pyrazolo[1,5-a]pyrimidin-3-yl)benzamide]: the results for the IC50 (in experiment [1]; on FGFR1) were less than 10 nM and 30 to 200 nM, respectively.

`CNC(=O)c1cc(F)c(F)c(-c2cnn3cc(-c4cnn(C5CCN(C)CC5)c4)c(O[C@H]4CCOC4)nc23)c1` [Example 11, (S)-3,4-Difluoro-N-methyl-5-(6-(1-(1-methylpiperidin-4-yl)-1H-pyrazol-4-yl)-5-((tetrahydrofuran-3-yl)oxy)pyrazolo[1,5-a]pyrimidin-3-yl)benzamide]: the IC50 (on FGFR2 (pre-incubated for 4 hours); in experiment [1]; at FGFR1) was less than 10 nM throughout.

With `CNC(=O)c1cc(F)c(F)c(-c2cnn3cc(-c4ccc(C)nc4)c(O[C@H]4CCOC4)nc23)c1` [Example 15, (S)-3,4-Difluoro-N-methyl-5-(6-(6-methylpyridin-3-y1)-5-((tetrahydrofuran-3-yl)oxy)pyrazolo[1,5-a]pyrimidin-3-yl)benzamide], the figures for the half-inhibitory concentration (IC50) (against FGFR2; in experiment [1]; on FGFR1) were less than 10 nM, less than 10 nM and 30 to 200 nM, respectively.

In the case of `CNC(=O)c1cc(C)c(F)c(-c2cnn3cc(-c4cnn(C5CCS(=O)(=O)C5)c4)c(N[C@H]4CCOC4)nc23)c1` (stereo partly drawn) [Example 38, 3-(6-(1-(1,1-Dioxidotetrahydrothiophen-3-y1)-1H-pyrazol-4-y1)-5-(((S)-tetrahydrofuran-3-yl)amino)pyrazolo[1,5-a]pyrimidin-3-y1)-4-fluoro-N,5-dimethylbenzamide], the IC50 at FGFR2 is less than 10 nM; in experiment [1] it was less than 10 nM; against FGFR1, 30 to 200 nM.

As to `CNC(=O)c1cc(F)c(F)c(-c2cnn3cc(-c4ccc(C(C)(C)O)nc4)c(N[C@H]4CCOC4)nc23)c1` [Example 57, (S)-3,4-Difluoro-5-(6-(6-(2-hydroxypropan-2-yl)pyridin-3-y1)-5-((tetrahydrofuran-3-yl)amino)pyrazolo[1,5-a]pyrimidin-3-y1)-N-methylbenzamide], the IC50 is less than 10 nM at FGFR2, less than 10 nM in experiment [1] and 30 to 200 nM against FGFR1.

`CNC(=O)c1cc(F)c(F)c(-c2cnn3cc(-c4ccc(N5CCN(C)CC5)cc4)c(O[C@H]4CCOC4)nc23)c1` [Example 12, (S)-3,4-Difluoro-N-methy1-5-(6-(4-(4-methylpiperazin-1-yl)pheny1)-5-((tetrahydrofuran-3-yl)oxy)pyrazolo[1,5-a]pyrimidin-3-yl)benzamide]: the IC50 (against FGFR2; in experiment [1]; at FGFR1) was less than 10 nM throughout.

With `CCn1cc(-c2cn3ncc(-c4cc(C(=O)NC)cc(C(F)F)c4F)c3nc2N[C@H]2CCOC2)cn1` [Example 48, (S)-3-(Difluoromethyl)-5-(6-(1-ethyl-1H-pyrazol-4-yl)-5-((tetrahydrofuran-3-yl)amino)pyrazolo[1,5-a]pyrimidin-3-yl)-4-fluoro-N-methylbenzamide], the values for the IC50 (on FGFR2 (pre-incubated for 4 hours); in experiment [1]; at FGFR1) were less than 10 nM, less than 10 nM and 10 to 30 nM, respectively.

`CNC(=O)c1cc(F)c(F)c(-c2cnn3cc(-c4cnn(Cc5cccnc5)c4)c(N[C@H]4CCOC4)nc23)c1` [Example 52, (S)-3,4-Difluoro-N-methyl-5-(6-(1-(pyridin-3-ylmethyl)-1H-pyrazol-4-yl)-5-((tetrahydrofuran-3-yl)amino)pyrazolo[1,5-a]pyrimidin-3-yl)benzamide]: the IC50 (at FGFR2 (pre-incubated for 4 hours); in experiment [1]; on FGFR1) was less than 10 nM in each case.

Turning to `CNC(=O)c1cc(C#N)cc(-c2cnn3cc(-c4cncc(C)c4)c(O[C@H]4CCOC4)nc23)c1` [Example 29, (S)-3-Cyano-N-methyl-5-(6-(5-methylpyridin-3-yl)-5-((tetrahydrofuran-3-yl)oxy)pyrazolo[1,5-a]pyrimidin-3-yl)benzamide], the IC50 at FGFR2 (pre-incubated for 4 hours) was 30 to 200 nM; against FGFR1, not below 200 nM.

For the compound `CNC(=O)c1cc(-c2cnn3cc(-c4cnn(CCOC)c4)c(N[C@H]4CCOC4)nc23)c(F)c(C(F)F)c1` [Example 50, (S)-3-(Difluoromethyl)-4-fluoro-5-(6-(1-(2-methoxyethyl)-1H-pyrazol-4-yl)-5-((tetrahydrofuran-3-yl)amino)pyrazolo[1,5-a]pyrimidin-3-yl)-N-methylbenzamide], the IC50 on FGFR2 (pre-incubated for 4 hours) is less than 10 nM; in experiment [1] it was less than 10 nM; against FGFR1 it was 10 to 30 nM.

`CNC(=O)c1cc(C#N)cc(-c2cnn3cc(-c4cccnc4)c(O[C@H]4CCOC4)nc23)c1` [Example 27, (S)-3-Cyano-N-methyl-5-(6-(pyridin-3-yl)-5-((tetrahydrofuran-3-yl)oxy)pyrazolo[1,5-a]pyrimidin-3-yl)benzamide]: the IC50 on FGFR2 (pre-incubated for 4 hours) was 10 to 30 nM; against FGFR1 it was not below 200 nM.

For `CNC(=O)c1cncc(-c2cnn3cc(-c4ccc(N5CCN(C)CC5)nc4)c(O[C@H]4CCOC4)nc23)c1` [Example 19, (S)-N-Methyl-5-(6-(6-(4-methylpiperazin-1-yl)pyridin-3-yl)-5-((tetrahydrofuran-3-yl)oxy)pyrazolo[1,5-a]pyrimidin-3-yl)nicotinamide], the IC50 against FGFR2 (pre-incubated for 4 hours) is less than 10 nM; in experiment [1] it was less than 10 nM; against FGFR1 it was 30 to 200 nM.

`CNC(=O)c1cncc(-c2cnn3cc(-c4cnn(C)c4)c(N[C@H]4CCOC4)nc23)c1` [Example 7, (S)—N-Methyl-5-(6-(1-methyl-1H-pyrazol-4-yl)-5-((tetrahydrofuran-3-yl)amino)pyrazolo[1,5-a]pyrimidin-3-yl)nicotinamide]: the half-inhibitory concentration (IC50) in experiment [1] was less than 10 nM; on FGFR1, 30 to 200 nM.

Regarding `[2H]C([2H])([2H])NC(=O)c1cc(C)c(F)c(-c2cnn3cc(-c4cnn(C5CCN(C(C)C)CC5)n4)c(N[C@H]4CCOC4)nc23)c1` [Example 67, (S)-4-Fluoro-3-(6-(2-(1-isopropylpiperidin-4-yl)-2H-1,2,3-triazol-4-yl)-5-((tetrahydrofuran-3-yl)amino)pyrazolo[1,5-a]pyrimidin-3-yl)-5-methyl-N-(methyl-d3)benzamide], the IC50 (at FGFR2 (pre-incubated for 4 hours); in experiment [1]; against FGFR1) was less than 10 nM in each case.

As to `CNC(=O)c1cc(C#N)cc(-c2cnn3cc(-c4ccncc4)c(O[C@H]4CCOC4)nc23)c1` [Example 30, (S)-3-Cyano-N-methyl-5-(6-(pyridin-4-yl)-5-((tetrahydrofuran-3-yl)oxy)pyrazolo[1,5-a]pyrimidin-3-yl)benzamide], the IC50 at FGFR2 (pre-incubated for 4 hours) was 10 to 30 nM; in experiment [1], less than 10 nM; at FGFR1, 30 to 200 nM.

For `CNC(=O)c1cc(-c2cnn3cc(-c4cnn(C5CCOC5)c4)c(N[C@H]4CCOC4)nc23)c(F)c(C(F)F)c1` (stereo partly drawn) [Example 49, 3-(Difluoromethyl)-4-fluoro-N-methyl-5-(6-(1-(tetrahydrofuran-3-yl)-1H-pyrazol-4-yl)-5-(((S)-tetrahydrofuran-3-yl)amino)pyrazolo[1,5-a]pyrimidin-3-y1)benzamide], the figures for the IC50 (against FGFR2; in experiment [1]; on FGFR1) were less than 10 nM, less than 10 nM and 10 to 30 nM, respectively.

As to `CNC(=O)c1cc(C)c(F)c(-c2cnn3cc(-c4cnn(CCC#N)c4)c(N[C@H]4CCOC4)nc23)c1` [Example 37, (S)-3-(6-(1-(2-Cyanoethyl)-1H-pyrazol-4-y1)-5-((tetrahydrofuran-3-yl)amino)pyrazolo[1,5-a]pyrimidin-3-y1)-4-fluoro-N,5-dimethylbenzamide], the IC50 against FGFR2 was less than 10 nM; in experiment [1] it was less than 10 nM; on FGFR1 it was 10 to 30 nM.

Take `CNC(=O)c1cc(-c2cnn3cc(-c4cnn(C)c4)c(N[C@H]4CCOC4)nc23)c(F)c(C(F)F)c1` [Example 47, (S)-3-(Difluoromethyl)-4-fluoro-N-methyl-5-(6-(1-methyl-1H-pyrazol-4-yl)-5-((tetrahydrofuran-3-yl)amino)pyrazolo[1,5-a]pyrimidin-3-yl)benzamide]: the IC50 is less than 10 nM against FGFR2 (pre-incubated for 4 hours), less than 10 nM in experiment [1] and 10 to 30 nM on FGFR1.

Take `CNC(=O)c1cncc(-c2cnn3cc(-c4ccc(N5CCN(C)CC5)cc4)c(O[C@H]4CCOC4)nc23)c1` [Example 18, (S)—N-Methyl-5-(6-(4-(4-methylpiperazin-1-yl)phenyl)-5-((tetrahydrofuran-3-yl)oxy)pyrazolo[1,5-a]pyrimidin-3-yl)nicotinamide]: the results for the IC50 (against FGFR2 (pre-incubated for 4 hours); in experiment [1]; at FGFR1) were less than 10 nM, less than 10 nM and 30 to 200 nM, respectively.

Turning to `CNC(=O)c1cc(-c2cnn3cc(-c4cnc(NC)c(C)c4)c(O[C@H]4CCOC4)nc23)c(F)c(C(F)F)c1` [Example 24, (S)-3-(Difluoromethyl)-4-fluoro-N-methyl-5-(6-(5-methyl-6-(methylamino)pyridin-3-yl)-5-((tetrahydrofuran-3-yl)oxy)pyrazolo[1,5-a]pyrimidin-3-yl)benzamide], the IC50 against FGFR2 (pre-incubated for 4 hours) was 10 to 30 nM; on FGFR1, not below 200 nM.

Turning to `CNC(=O)c1cncc(-c2cnn3cc(-c4cnn(C(C)C)c4)c(N[C@H]4CCOC4)nc23)c1` [Example 10, (S)-5-(6-(1-Isopropyl-1H-pyrazol-4-yl)-5-((tetrahydrofuran-3-yl)amino)pyrazolo[1,5-a]pyrimidin-3-yl)-N-methylnicotinamide], the results for the IC50 (in experiment [1]; on FGFR1) were less than 10 nM and 30 to 200 nM, respectively.

For `CNC(=O)c1cc(C)c(F)c(-c2cnn3cc(-c4ccnnc4)c(N[C@H]4CCOC4)nc23)c1` [Example 44, (S)-4-Fluoro-N,3-dimethyl-5-(6-(pyridazin-4-yl)-5-((tetrahydrofuran-3-yl)amino)pyrazolo[1,5-a]pyrimidin-3-yl)benzamide], the results for the IC50 against FGFR2 (pre-incubated for 4 hours) and at FGFR1 were 10 to 30 nM and not below 200 nM, respectively.
